Measurements: ChEMBL document CHEMBL5131434, “Design and synthesis of novel orexin 2 receptor agonists based on naphthalene skeleton” (Bioorg Med Chem Lett, 2022)

Columns and labels:
[1] = molecular target: T1, Orexin/Hypocretin receptor type 1 (Homo sapiens, UniProt O43613); test: Antagonist activity at human OX1R expressed in CHO-K1 cells assessed as inhibition of orexin-A-induced increase in calcium mobilization preincubated for 15 mins followed orexin-A stimulation by Fura-2-AM dye based fluorescence assay
T1 sequence (O43613 whole entry): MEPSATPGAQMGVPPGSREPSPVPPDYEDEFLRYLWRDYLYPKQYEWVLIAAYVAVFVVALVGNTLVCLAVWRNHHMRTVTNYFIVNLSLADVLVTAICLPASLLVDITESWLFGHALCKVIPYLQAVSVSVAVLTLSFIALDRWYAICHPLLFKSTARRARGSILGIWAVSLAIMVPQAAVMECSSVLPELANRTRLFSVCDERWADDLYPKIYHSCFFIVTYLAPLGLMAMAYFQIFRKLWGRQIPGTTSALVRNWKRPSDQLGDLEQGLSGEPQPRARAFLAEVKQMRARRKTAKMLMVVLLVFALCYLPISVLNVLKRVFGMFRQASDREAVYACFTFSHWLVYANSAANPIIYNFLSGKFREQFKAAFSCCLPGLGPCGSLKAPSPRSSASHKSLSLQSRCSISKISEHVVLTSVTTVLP

[2] = molecular target: T2, Orexin/Hypocretin receptor type 1 (Homo sapiens) (UniProt O43613); test: Agonist activity at OX1R (unknown origin) expressed in CHO cells at 10 uM by cell-based calcium assay relative to Orexin A; format: functional
T2 sequence (whole entry): T1 sequence (O43613 whole entry)

[3] = molecular target: T3, Orexin receptor type 2 (Homo sapiens) (UniProt O43614); test: Agonist activity at OX2R (unknown origin) expressed in CHO cells at 10 uM by cell-based calcium assay relative to orexin A; format: functional
T3 sequence (whole entry): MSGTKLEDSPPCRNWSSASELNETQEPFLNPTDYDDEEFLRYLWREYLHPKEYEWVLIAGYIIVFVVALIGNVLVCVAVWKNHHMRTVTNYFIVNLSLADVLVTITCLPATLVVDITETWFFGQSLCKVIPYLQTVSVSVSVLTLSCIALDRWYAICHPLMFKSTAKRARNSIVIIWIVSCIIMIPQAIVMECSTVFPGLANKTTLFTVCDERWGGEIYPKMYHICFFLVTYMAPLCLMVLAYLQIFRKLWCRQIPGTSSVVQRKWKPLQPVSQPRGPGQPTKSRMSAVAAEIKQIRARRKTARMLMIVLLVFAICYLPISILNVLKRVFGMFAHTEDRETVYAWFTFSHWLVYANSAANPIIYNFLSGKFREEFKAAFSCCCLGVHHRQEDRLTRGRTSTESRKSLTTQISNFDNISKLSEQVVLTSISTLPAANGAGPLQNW

[4] = molecular target: T1, Orexin/Hypocretin receptor type 1; test: Agonist activity at OX1R (unknown origin) expressed in CHO cells by cell-based calcium assay; format: functional
Orexin receptor type 2 = molecular target: T4, Orexin receptor type 2 (Homo sapiens, UniProt O43614); test: Agonist activity at OX2R (unknown origin) expressed in CHO cells by cell-based calcium assay; format: functional
T4 sequence (O43614 whole entry): T3 sequence (whole entry)

Homo sapiens = species on record: Homo sapiens; test: Selectivity ratio of EC50 for agonist activity at human OX1R expressed in CHO-K1 cells to EC50 for agonist activity at human OX2R expressed in CHO-K1 cells; format: cell-based

Compound	Ki [1] [nM]	Efficacy [2] [%]	Efficacy [3] [%]	EC50 [4] [µM]	EC50 (Orexin receptor type 2) [µM]	Ratio EC50 (Homo sapiens)
COc1ccc(C(=O)Nc2cccc([C@]3(C)O[C@H]4CO[C@@H]5N4[C@H]3O[C@@]5(C)c3cccc(NC(=O)c4ccc(OC)cc4)c3)c2)cc1	2.17	–	–	–	–	–
COc1ccc(-c2cccc(C(=O)N(C)C)c2)cc1S(=O)(=O)Nc1ccc2ccc(NC(=O)c3ccccc3)cc2c1	–	< 5	< 5	> 10	> 10	–
COC(=O)N1CCC[C@H](NS(C)(=O)=O)[C@@H]1CO[C@H]1CC[C@@H](c2ccccc2)CC1	–	–	–	–	–	> 5000
COc1ccc(-c2cccc(C(=O)N(C)C)c2)cc1S(=O)(=O)Nc1ccc2ccc(N(C)C(=O)c3ccccc3)cc2c1	–	< 5	< 5	> 10	> 10	–
COc1ccc(C(=O)Nc2cccc([C@]3(C)O[C@@H]4CO[C@H]5N4[C@@H]3O[C@@]5(C)c3cccc(NC(=O)c4ccc(OC)cc4)c3)c2)cc1	5.23	–	–	–	–	–
COc1ccccc1C(=O)N(C)c1cccc2ccc(NS(=O)(=O)c3cc(-c4cccc(C(=O)N(C)C)c4)ccc3OC)cc12	–	–	–	> 10	> 10	–
